{
  "source": "patent US20190125753A1",
  "about": "“COMPOUNDS AND METHODS FOR INCREASING HEMATOPOIESIS” (University of Southern California, priority 2016, published 2019)",
  "key": {"[1]": {"test_system": "bone marrow HSPC", "assay": "HSPC proliferation in 7Gy irradiated mice (BrdU, cell cycle, FACS)", "assay_type": "in vivo, mouse", "description": "YH250 was also tested for stimulation of HSPC (hematopoietic stem/progenitor population) proliferation in irradiated animals. In this study, mice received 7Gy whole body radiation, DMSO or YH250 (s.c., 2 mg/Kg) were administrated 24 hours post radiation, followed with BrdU injection. FIG. 17A depicts the experimental procedure. […] Then, YH250 was administrated to 7Gy irradiated animals and 4 days later, bone marrow cells were isolated for FACS analysis for HSC markers (FIG. 17E)."}, "[2]": {"test_system": "long-term repopulating HSC", "assay": "HSC differentiation assay (LTR-HSC from treated mice co-cultured with GFP bone marrow cells)", "assay_type": "in vivo, mouse", "conditions": "2 mg/kg, 24 hours, then 2.5-3 days co-culture", "description": "DMSO or YH250 (2 mg/kg) were administrated to female C57/BL mice. (Mice were purchased from JAX stock#000664 for CD45.2 or Stock#002014 for CD45.1). 24 hours later, long-term repopulating HSC (LTR-HSC, Lin-negt/Sca-1-posit/c-kit-posit/CD34negt/CD135negt/CD48negt/CD150posit cells were purified with fluorescent flow cytometry sorting (FACS). Then, the purified cells were co-cultured with whole bone marrow cells isolated from GFP-transgenic mice (C57BL/6Tg-UBC-GFP, JAX stock#004353), which serves as supporting system in stem cell medium (Stemspan, Stemcell Technologies, Cat#9650) supplemented with SCF (stem cell factor 10 ng/ml) and TPO (thrombopoietin, 10 ng/ml). 2.5-3 days after co-culture, cells were harvested and analyzed for surface markers of CD48 and CD202b (Tie-2) (FIG. 7A)."}, "[3]": {"test_system": "cord blood cells", "assay": "Cord blood cell repopulation in NSG mice", "assay_type": "in vivo, human", "conditions": "day 57 post BMT", "description": "FIG. 11A depicts the experimental procedure."}, "[4]": {"test_system": "bone marrow stem/progenitor cells", "assay": "HSPC proliferation in 5-FU treated animals", "assay_type": "in vivo, mouse", "conditions": "5-FU 150 mg/kg, YH250 2 mg/kg 24 hours later, analysed one day later", "description": "p300/-catenin antagonists, such as YH250, were also tested for the ability to stimulate bone marrow stem/progenitor cell proliferation in chemotherapeutic drug-treated (e.g., 5-FU) animals. As depicted in FIG. 24A, animals were given PBS or 5-FU (150 mg/kg). 24 hours later, either DMSO or YH250 (2 mg/kg) were administrated to animals. Then, bone marrow cells were isolated one day later for FACS analysis."}, "[5]": {"test_system": "LSK150+41−48− cells (LTR-HSC)", "assay": "RNA sequencing of long-term repopulating HSC from treated mice", "assay_type": "in vivo, mouse", "conditions": "2 mg/kg vs DMSO, 16 hours", "description": "DMSO or YH250 (2 mg/kg) were administrated to female C57/Black mice."}},
  "data": [
    {"smiles": "COc1cccc(CNC(=O)N2C3CN(Cc4cc(Cl)cc(Cl)c4N(C)C)C(=O)[C@H](Cc4ccc(O)cc4)N3C(=O)CN2C)c1OC", "note": "(stereo partly shown) [YH250]", "values": [
      {"measurement": "bone marrow cells in S phase", "setting": "[1]; 7Gy irradiation", "result": "more bone marrow cells in S phase"},
      {"measurement": "HSPC (L−CD48−CD150+ cells)", "setting": "[1]; 7Gy, 4 days after administration", "result": "increased HSPC"},
      {"measurement": "BrdU positive cells in lineage negative (Lin) population", "setting": "[1]; 7Gy, s.c., 2 mg/Kg 24 hours post radiation", "result": "more BrdUpost cells"},
      {"measurement": "CD48posit cells vs DMSO", "setting": "[2]; p=0.010", "result": "significantly less"},
      {"measurement": "non-differentiated CD48negt/CD202bposit cells vs DMSO", "setting": "[2]; p=0.04", "result": "significantly more"},
      {"measurement": "human CD34+ cells in bone marrow vs DMSO treated cells", "setting": "[3]; in vitro treated cells", "result": "more human CD34+ cells in bone marrow"},
      {"measurement": "donor cell engraftment in blood", "setting": "[3]; pre-incubation in vitro 24 hours before BMT", "result": "best engraftment in blood"},
      {"measurement": "Lin-CD48-CD150+ cell numbers vs DMSO", "setting": "[4]", "result": "significantly higher"},
      {"measurement": "lineage negative cell numbers vs DMSO", "setting": "[4]", "result": "significantly higher"},
      {"measurement": "Fold-Change A430005L14Rik", "setting": "[5]", "result": 2.07, "unit": "fold"},
      {"measurement": "Fold-Change Car1", "setting": "[5]", "result": 46.29, "unit": "fold"},
      {"measurement": "Fold-Change Casp6", "setting": "[5]", "result": 2.56, "unit": "fold"},
      {"measurement": "Fold-Change Cd52", "setting": "[5]", "result": 3.09, "unit": "fold"},
      {"measurement": "Fold-Change Cd53", "setting": "[5]", "result": 2.79, "unit": "fold"},
      {"measurement": "Fold-Change Cd69", "setting": "[5]", "result": 2.44, "unit": "fold"},
      {"measurement": "Fold-Change Cd74", "setting": "[5]", "result": 2.30, "unit": "fold"},
      {"measurement": "Fold-Change Cd79a", "setting": "[5]", "result": 5.49, "unit": "fold"},
      {"measurement": "Fold-Change Cdc123", "setting": "[5]", "result": 2.13, "unit": "fold"},
      {"measurement": "Fold-Change Dtx3", "setting": "[5]", "result": "−2.12", "unit": "fold"},
      {"measurement": "Fold-Change Gm21897", "setting": "[5]", "result": "−2.18", "unit": "fold"},
      {"measurement": "Fold-Change Gm26377 (miRNA)", "setting": "[5]", "result": "−58.02", "unit": "fold"},
      {"measurement": "Fold-Change Ighm", "setting": "[5]", "result": 6.14, "unit": "fold"},
      {"measurement": "Fold-Change Ighv11-2", "setting": "[5]", "result": 8.18, "unit": "fold"},
      {"measurement": "Fold-Change Igj", "setting": "[5]", "result": 3.36, "unit": "fold"},
      {"measurement": "Fold-Change Igkc", "setting": "[5]", "result": 3.93, "unit": "fold"},
      {"measurement": "Fold-Change Igkv14-126", "setting": "[5]", "result": 8.00, "unit": "fold"},
      {"measurement": "Fold-Change Igkv19-93", "setting": "[5]", "result": 21.16, "unit": "fold"},
      {"measurement": "Fold-Change Iglc2", "setting": "[5]", "result": 4.58, "unit": "fold"},
      {"measurement": "Fold-Change Il2rg", "setting": "[5]", "result": 2.03, "unit": "fold"},
      {"measurement": "Fold-Change Kcnq1ot1 (antisense)", "setting": "[5]", "result": "−2.37", "unit": "fold"},
      {"measurement": "Fold-Change Ldlr", "setting": "[5]", "result": "−3.57", "unit": "fold"},
      {"measurement": "Fold-Change Ly6c2", "setting": "[5]", "result": 7.17, "unit": "fold"},
      {"measurement": "Fold-Change Mid1", "setting": "[5]", "result": "−3.98", "unit": "fold"},
      {"measurement": "Fold-Change Mrpl30", "setting": "[5]", "result": 2.07, "unit": "fold"},
      {"measurement": "Fold-Change Ndufaf7", "setting": "[5]", "result": 3.45, "unit": "fold"},
      {"measurement": "Fold-Change Pias1", "setting": "[5]", "result": 2.02, "unit": "fold"},
      {"measurement": "Fold-Change Psmf1", "setting": "[5]", "result": 2.48, "unit": "fold"},
      {"measurement": "Fold-Change RP23-99K18.3 (lincRNA)", "setting": "[5]", "result": "−2.28", "unit": "fold"},
      {"measurement": "Fold-Change Tgtp1", "setting": "[5]", "result": 2.85, "unit": "fold"},
      {"measurement": "Fold-Change Tmed4", "setting": "[5]", "result": 2.06, "unit": "fold"}
    ]}
  ]
}
